Laboratory results from patent publication US9260485B2 (priority 2009, dated 2016).
Where two headings read alike, the source gives them in different places. Square brackets hold non-standard residues; d marks the D form. Peptide text beside a SMILES is read from it. ξ: configuration not given here. Hica(2S) = CC(C)C[C@H](O)C(=O)O; ξLac(3-iPr) = CC(C)CC(O)C(=O)O; NMeL = CN[C@@H](CC(C)C)C(=O)O

Key:
[1] = test system: HCT15/CL02 cell line (doxorubicin-selected from HCT15); test: In vitro cytotoxicity, SRB method; assay type: cell-based, Human
Experimental: (§1) Known cyclic hexadepsipeptides (beauvericin, enniatin H, I, and MK1688) and the compounds of Chemical Formulas 1 and 2 were evaluated for in vitro cytotoxicity against various non-multidrug-resistant human cancer cell lines and multidrug-resistant cancer cell lines using the SRB method.
(§2) Human non-small-cell lung cancer cell line (A549) ovarian cancer cell line (SK-OV-3), skin cancer cell line (SK-MEL-2), and uterine sarcoma cell line MES-SA and its multi-drug resistant subline (MES-SA/DX5) were purchased from the American Type Culture Collection (USA). Colorectal carcinoma cancer cell line (HCT-15) was provided by the National Cancer Institute (NCI). HCT15/CL02 cell lines were established from HCT15 cells by continuous and stepwise exposure of the cells to doxorubicin in the Korea Research Institute of Chemical Technology (Korea).

[2] = test system: MES-SA uterine sarcoma cell line; test: In vitro cytotoxicity, SRB method; assay type: cell-based, Human; settings: read-out: EC50 (concentration inhibiting cell growth in vitro by 50%)
Experimental: as §1, §2

[3] = test system: SK-MEL-2 skin cancer cell line; test: In vitro cytotoxicity, SRB method; assay type: cell-based, Human
Experimental: as §1, §2

[4] = test system: MES-SA/DX5 multi-drug resistant subline; test: In vitro cytotoxicity, SRB method; assay type: cell-based, Human
Experimental: as §1, §2

[5] = test system: A549 non-small-cell lung cancer cell line; test: In vitro cytotoxicity, SRB method; assay type: cell-based, Human
Experimental: as §1, §2

[6] = test system: SK-OV-3 ovarian cancer cell line; test: In vitro cytotoxicity, SRB method; assay type: cell-based, Human
Experimental: as §1, §2

[7] = test system: HCT15 colorectal carcinoma cancer cell line; test: In vitro cytotoxicity, SRB method; assay type: cell-based, Human
Experimental: as §1, §2

[8] = test system: Listeria monocytogenes ATCC 14028; test: Anti-bacterial activity, paper disc clear zone; assay type: cell-based; settings: 0.1, 0.5, 1 and 2 mM on paper disc; 37° C., 24 hr
Experimental: (§3) Assays for antibacterial activity were performed with 3 Gram-positive (Listeria monocytogenes ATCC 14028, Staphylococcus aureus ATCC 35556 and Bacillus cereus ATCC 13061) and 3 Gram-negative bacteria (Escherichia coli ATCC 8739, Pseudomonas aeruginosa ATCC 9026 and Salmonella typhimurium ATCC 14028). Each of the compounds of Chemical Formulas 1 and 2 was dissolved in different concentrations (0.1, 0.5, 1, and 2 mM) in dimethyl sulfoxide (DMSO). The solutions were applied to a sterile paper disc (5 mm diameter), followed by evaporating the DMSO solvent. Bacteria was inoculated at a density of 1×10^7 CFU/ml on Tryptic soy agar (TSA) and then, the paper disc was placed on the bacteria-inoculated agars. After incubation at 37° C. for 24 hr, the clear zone around each disc was observed and its diameter was measured.

[9] = test system: Escherichia coli ATCC 8739; test: Anti-bacterial activity, paper disc clear zone; assay type: cell-based; settings: 0.1, 0.5, 1 and 2 mM on paper disc; 37° C., 24 hr
Experimental: as §3

[10] = test system: Salmonella typhimurium ATCC 14028; test: Anti-bacterial activity, paper disc clear zone; assay type: cell-based; settings: 0.1, 0.5, 1 and 2 mM on paper disc; 37° C., 24 hr
Experimental: as §3

[11] = test system: Bacillus cereus ATCC 13061; test: Anti-bacterial activity, paper disc clear zone; assay type: cell-based; settings: 0.1, 0.5, 1 and 2 mM on paper disc; 37° C., 24 hr
Experimental: as §3

[12] = test system: Pseudomonas aeruginosa ATCC 9026; test: Anti-bacterial activity, paper disc clear zone; assay type: cell-based; settings: 0.1, 0.5, 1 and 2 mM on paper disc; 37° C., 24 hr
Experimental: as §3

[13] = test system: Staphylococcus aureus ATCC 35556; test: Anti-bacterial activity, paper disc clear zone; assay type: cell-based; settings: 0.1, 0.5, 1 and 2 mM on paper disc; 37° C., 24 hr
Experimental: as §3

Fusarium oxysporum = test: Anti-fungal activity, paper disc on mycelia on PDA; assay type: cell-based
Experimental: (§4) Inhibitory activity was performed against four fungus strains (Mucor rouxii, Penicillium citrinum, Fusarium oxysporum, and Aspergillus oryzae).
(§5) Drops of 1 and 10 mM solutions of compounds of Chemical Formulas 1 and 2 in methanol were loaded onto sterile paper discs (8 mm diameter) and the methanol solvent was evaporated under a hood. The paper discs were placed on fungus mycelia grown on potato dextrose agar. After incubation at 25° C. for 48 hr, clear zones around the discs were observed and their diameters were measured. A filter treated with pure methanol was used as a negative control.

Penicillium citrinum = test: Anti-fungal activity, paper disc on mycelia on PDA; assay type: cell-based; settings: 1 mM; 25° C., 48 hr
Experimental: as §4, §5

Aspergillus oryzae = test: Anti-fungal activity, paper disc on mycelia on PDA; assay type: cell-based; settings: 1 mM; 25° C., 48 hr
Experimental: as §4, §5

Mucor rouxii = test: Anti-fungal activity, paper disc on mycelia on PDA; assay type: cell-based
Experimental: as §4, §5

[14] = test system: MDR cell lines (MES-SA/DX5 and HCT15/CL02); test: Multidrug resistance-reversing activity, summary in words; assay type: cell-based, Human
Experimental: The cyclic pentadepsipeptides of Chemical Formulas 1 and 2 were analyzed for MDR-reversing activity by comparing inhibitory activities against multidrug-resistant cancer cell lines (MES-SA/DX5 and HCT15/CL02) with those against non-multidrug-resistant cancer cell lines (MES-SA and HCT15). In this regard, the effects of the cyclic pentadepsipeptides of Chemical Formulas 1 and 2 on paclitaxel's cytotoxicity against MDR tumor cells were measured (Table 6). […].
Therefore, the N-methyl group in the cyclic pentadepsipeptide may be a factor crucial for the expression of the MDR reversal activity. […]

HCT-116 colon carcinoma = settings: cited from earlier work
[15] = Homo sapiens, SK-MEL-2, read-out: EC50 (concentration inhibiting cell growth in vitro by 50%)
[16] = Homo sapiens, MES-SA/Dx5, read-out: EC50 (concentration inhibiting cell growth in vitro by 50%)
[17] = Homo sapiens, A549, read-out: EC50 (concentration inhibiting cell growth in vitro by 50%)
[18] = Homo sapiens, SK-OV-3, read-out: EC50 (concentration inhibiting cell growth in vitro by 50%)
[19] = Homo sapiens, HCT-15, read-out: EC50 (concentration inhibiting cell growth in vitro by 50%)

Which results are given for `COc1cccc2c1C(=O)c1c(O)c3c(c(O)c1C2=O)C[C@@](O)(C(=O)CO)C[C@@H]3O[C@H]1C[C@H](N)[C@H](O)[C@H](C)O1` [Doxorubicin, doxorubicin]?
EC50 ([1]; Homo sapiens, HCT-15, read-out: EC50 (concentration inhibiting cell growth in vitro by 50%), HCT15/CL02): 4.48 ± 2.15 µM; EC50 ([2]; Homo sapiens): 10 ± 0.1 nM; EC50 [3, 15]: 40 ± 10 nM; EC50 [4, 16]: 1030 ± 310 nM; EC50 [5, 17]: 30 ± 10 nM; EC50 [6, 18]: 60 ± 10 nM; EC50 ([7]; Homo sapiens, HCT-15, read-out: EC50 (concentration inhibiting cell growth in vitro by 50%), HCT15): 10 ± 1 nM

Which “Inhibitory activity (clear zone around disc)” value [8] does the source give for `CC(C)CC1OC(=O)[C@H](Cc2ccccc2)NC(=O)[C@H](CC(C)C)NC(=O)[C@H](C(C)C)NC(=O)[C@H](CC(C)C)N(C)C1=O` (some centres unmarked) [Com. 2, neo-Nmethylsansalvamide] (cyclo(F[ξLac(3-iPr)][NMeL]VL)) here?
Its value is “Neither the compound of Chemical Formula 1 nor Chemical Formula 2 showed inhibitory activity”.

And the “Inhibitory activity (clear zone around disc)” value [9]?
Its value is “Neither the compound of Chemical Formula 1 nor Chemical Formula 2 showed inhibitory activity”.

And the “Inhibitory activity (clear zone around disc)” value [10]?
Its value is “Neither the compound of Chemical Formula 1 nor Chemical Formula 2 showed inhibitory activity”.

What about the “Inhibitory activity (clear zone around disc)” value [11] of the same compound?
Its value is “Neither the compound of Chemical Formula 1 nor Chemical Formula 2 showed inhibitory activity”.

What about the “Inhibitory activity (clear zone around disc)” value [12] of the same compound?
The value was “Neither the compound of Chemical Formula 1 nor Chemical Formula 2 showed inhibitory activity”.

What about the “Inhibitory activity (clear zone around disc)” value [13] of the same compound?
Its value is “Neither the compound of Chemical Formula 1 nor Chemical Formula 2 showed inhibitory activity”.

And the “Antifungal test, overall result” value (Fusarium oxysporum)?
The value was “inhibitory against Mucor rouxii, and Fusarium oxysporum, weakly”.

And the “Inhibitory activity on mycelial growth” value (Fusarium oxysporum; 1 mM, 25° C., 48 hr)?
The value was “No inhibitory activities were detected”.

And the “Clear zone / inhibitory effect on mycelium” value (Fusarium oxysporum; 10 mM, 25° C., 48 hr)?
The value was “exhibited an inhibitory effect at 10 mM, weakly”.

What about the “Inhibitory activity on mycelial growth” value (Penicillium citrinum) of the same compound?
Its value is “No inhibitory activities were detected”.

And the “Inhibitory activity on mycelial growth” value (Aspergillus oryzae)?
The value was “No inhibitory activities were detected”.

And the “Antifungal test, overall result” value (Mucor rouxii)?
The value was “inhibitory against Mucor rouxii, and Fusarium oxysporum, weakly”.

And the “Inhibitory activity on mycelial growth” value (Mucor rouxii; 1 mM, 25° C., 48 hr)?
The value was “No inhibitory activities were detected”.

And the Clear zone (Mucor rouxii; 10 mM, 25° C., 48 hr)?
The Clear zone was “no clear zones were observed”.

What about the “Hyphal growth near the paper disc” value (Mucor rouxii; 10 mM, 25° C., 48 hr) of the same compound?
Its value is “hyphal growth of Mucor rouxii was reduced”.

What about the “Effect on the cytotoxicity of paclitaxel against MDR cell lines” value [14] of the same compound?
Its value is “remarkably enhanced the cytotoxicity of paclitaxel”.

And the EC50 [1, 19]?
Its EC50 is 13.5 ± 1.19 µM.

And the EC50 ([2]; Homo sapiens)?
Its EC50 is 14000 ± 740 nM.

And the EC50 [3, 15]?
Its EC50 is 10000 ± 530 nM.

And the EC50 [4, 16]?
Its EC50 is 11400 ± 300 nM.

What about the EC50 [5, 17] of the same compound?
Its EC50 is 10700 ± 150 nM.

And the EC50 [6, 18]?
The EC50 was 11200 ± 1230 nM.

And the EC50 [7, 19]?
Its EC50 is 12500 ± 710 nM.

For beauvericin, which EC50 ([1]; read-out: EC50 (concentration inhibiting cell growth in vitro by 50%), HCT15/CL02) is on record?
Its EC50 is 1.66 ± 0.08 µM.

And the EC50 [2]?
The EC50 was 1290 ± 20 nM.

And the EC50 ([3]; read-out: EC50 (concentration inhibiting cell growth in vitro by 50%), SK-MEL-2)?
Its EC50 is 1470 ± 90 nM.

And the EC50 ([4]; read-out: EC50 (concentration inhibiting cell growth in vitro by 50%), MES-SA/DX5)?
The EC50 was 1340 ± 30 nM.

What about the EC50 ([5]; read-out: EC50 (concentration inhibiting cell growth in vitro by 50%), A549) of the same compound?
Its EC50 is 1430 ± 160 nM.

What about the EC50 ([6]; read-out: EC50 (concentration inhibiting cell growth in vitro by 50%), SK-OV-3) of the same compound?
The EC50 was 1390 ± 90 nM.

What about the EC50 ([7]; read-out: EC50 (concentration inhibiting cell growth in vitro by 50%), HCT15) of the same compound?
The EC50 was 1530 ± 90 nM.

With `CC(C)C[C@@H]1NC(=O)[C@H](C(C)C)NC(=O)[C@H](CC(C)C)OC(=O)[C@H](CC(C)C)NC(=O)[C@H](Cc2ccccc2)NC1=O` [sansalvamide] (cyclo(FL[Hica(2S)]VL)) as the compound, how does the “in vitro IC50” value (HCT-116 colon carcinoma) read?
Its value is 9.8 µg/mL.
